# Measurements as given in PubChem BioAssay (NCI).
#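 Step 1: Grow cells in 96-well plates. Step 2: Expose to compound for 48 hours at 5 concentrations. Step 3: Interpolate endpoints linearly; if unreached, use highest concentration. GI50 marks 50% less growth. Definition used: TGI = concentration required for complete inhibition of growth.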
# What was measured:
# Assay in all cases: NCI tumour cell line growth inhibition, 48 h
# KM12 colon = system: KM12 colon
# HL-60(TB) leukemia = system: HL-60(TB) leukemia
# A549 NSCLC = system: A549 NSCLC
# NCI-H522 lung = system: NCI-H522 lung
# IGROV1 ovarian = system: IGROV1 ovarian
# RXF 393 renal = system: RXF 393 renal
# MDA-MB-435 = system: MDA-MB-435
# ACHN renal = system: ACHN renal
# SN12C renal = system: SN12C renal
# UACC-62 melanoma = system: UACC-62 melanoma
# U251 CNS = system: U251 CNS
# MCF7 breast = system: MCF7 breast
# SW-620 colon = system: SW-620 colon
# MALME-3M melanoma = system: MALME-3M melanoma
# NCI-H226 lung = system: NCI-H226 lung
# CCRF-CEM leukemia = system: CCRF-CEM leukemia
# HCT-15 colon = system: HCT-15 colon
# DU-145 prostate = system: DU-145 prostate
# HOP-62 NSCLC = system: HOP-62 NSCLC
# 786-0 renal = system: 786-0 renal
# COLO 205 colon = system: COLO 205 colon
# SK-MEL-5 melanoma = system: SK-MEL-5 melanoma
# MDA-MB-231 breast = system: MDA-MB-231 breast
# SR leukemia = system: SR leukemia
# EKVX NSCLC = system: EKVX NSCLC
# M14 melanoma = system: M14 melanoma
# SF-295 CNS = system: SF-295 CNS
# HCC-2998 colon = system: HCC-2998 colon
# SF-268 CNS = system: SF-268 CNS
# SNB-19 CNS = system: SNB-19 CNS
# LOX IMVI melanoma = system: LOX IMVI melanoma
# HCT-116 colon = system: HCT-116 colon
# BT-549 breast = system: BT-549 breast
# SF-539 CNS = system: SF-539 CNS
# UACC-257 melanoma = system: UACC-257 melanoma
# OVCAR-5 ovarian = system: OVCAR-5 ovarian
# OVCAR-3 ovarian = system: OVCAR-3 ovarian
# SK-OV-3 ovarian = system: SK-OV-3 ovarian
# SK-MEL-28 melanoma = system: SK-MEL-28 melanoma
# OVCAR-8 ovarian = system: OVCAR-8 ovarian
# NCI-H23 lung = system: NCI-H23 lung
# TK-10 renal = system: TK-10 renal
# PC-3 prostate = system: PC-3 prostate
# T-47D breast = system: T-47D breast
# OVCAR-4 ovarian = system: OVCAR-4 ovarian
# CAKI-1 renal = system: CAKI-1 renal
# UO-31 renal = system: UO-31 renal
# A498 renal = system: A498 renal
# MOLT-4 leukemia = system: MOLT-4 leukemia
# NCI/ADR-RES ovarian = system: NCI/ADR-RES ovarian
# NCI-H460 lung = system: NCI-H460 lung
# HS 578T breast = system: HS 578T breast
# K-562 leukemia = system: K-562 leukemia
# SNB-75 CNS = system: SNB-75 CNS
# RPMI-8226 leukemia = system: RPMI-8226 leukemia
# SK-MEL-2 melanoma = system: SK-MEL-2 melanoma
# HOP-92 NSCLC = system: HOP-92 NSCLC
smiles,measurement,setting,value
O=C1NC(=S)S/C1=C(/C=C(\CC(=O)c1ccccc1)c1ccc(Cl)cc1)c1ccccc1,GI50,KM12 colon,28.2 µM
same,TGI,KM12 colon,> 100 µM
same,GI50,HL-60(TB) leukemia,21.7 µM
same,TGI,HL-60(TB) leukemia,55.2 µM
same,GI50,A549 NSCLC,20.2 µM
same,TGI,A549 NSCLC,> 100 µM
same,GI50,NCI-H522 lung,17.9 µM
same,TGI,NCI-H522 lung,44.9 µM
same,GI50,IGROV1 ovarian,41.6 µM
same,TGI,IGROV1 ovarian,> 100 µM
same,GI50,RXF 393 renal,23.4 µM
same,TGI,RXF 393 renal,82.1 µM
same,GI50,MDA-MB-435,37.2 µM
same,TGI,MDA-MB-435,> 100 µM
same,GI50,ACHN renal,25.5 µM
same,TGI,ACHN renal,61.3 µM
same,GI50,SN12C renal,25.3 µM
same,TGI,SN12C renal,56.3 µM
same,GI50,UACC-62 melanoma,21.6 µM
same,TGI,UACC-62 melanoma,43.7 µM
same,GI50,U251 CNS,30.9 µM
same,TGI,U251 CNS,> 100 µM
same,GI50,MCF7 breast,19.8 µM
same,TGI,MCF7 breast,48.1 µM
same,GI50,SW-620 colon,42.9 µM
same,TGI,SW-620 colon,> 100 µM
same,GI50,MALME-3M melanoma,39.9 µM
same,TGI,MALME-3M melanoma,> 100 µM
same,GI50,NCI-H226 lung,28.5 µM
same,TGI,NCI-H226 lung,90.4 µM
same,GI50,CCRF-CEM leukemia,24.7 µM
same,TGI,CCRF-CEM leukemia,73.7 µM
same,GI50,HCT-15 colon,15.8 µM
same,TGI,HCT-15 colon,39.4 µM
same,GI50,DU-145 prostate,43.1 µM
same,TGI,DU-145 prostate,> 100 µM
same,GI50,HOP-62 NSCLC,38.5 µM
same,TGI,HOP-62 NSCLC,> 100 µM
same,GI50,786-0 renal,46.9 µM
same,TGI,786-0 renal,> 100 µM
same,GI50,COLO 205 colon,32.5 µM
same,TGI,COLO 205 colon,> 100 µM
same,GI50,SK-MEL-5 melanoma,19.1 µM
same,TGI,SK-MEL-5 melanoma,34.3 µM
same,GI50,MDA-MB-231 breast,25 µM
same,TGI,MDA-MB-231 breast,72.6 µM
same,GI50,SR leukemia,27 µM
same,TGI,SR leukemia,63.3 µM
same,GI50,EKVX NSCLC,33.6 µM
same,TGI,EKVX NSCLC,> 100 µM
same,GI50,M14 melanoma,24.7 µM
same,TGI,M14 melanoma,63.4 µM
same,GI50,SF-295 CNS,23.4 µM
same,TGI,SF-295 CNS,64.7 µM
same,GI50,HCC-2998 colon,18.2 µM
same,TGI,HCC-2998 colon,47.4 µM
same,GI50,SF-268 CNS,27.1 µM
same,TGI,SF-268 CNS,96 µM
same,GI50,SNB-19 CNS,95.1 µM
same,TGI,SNB-19 CNS,> 100 µM
same,GI50,LOX IMVI melanoma,37.6 µM
same,TGI,LOX IMVI melanoma,> 100 µM
same,GI50,HCT-116 colon,31.8 µM
same,TGI,HCT-116 colon,> 100 µM
same,GI50,BT-549 breast,33 µM
same,TGI,BT-549 breast,> 100 µM
same,GI50,SF-539 CNS,39 µM
same,TGI,SF-539 CNS,> 100 µM
same,GI50,UACC-257 melanoma,21.9 µM
same,TGI,UACC-257 melanoma,61.8 µM
same,GI50,OVCAR-5 ovarian,65.4 µM
same,TGI,OVCAR-5 ovarian,> 100 µM
same,GI50,OVCAR-3 ovarian,24.2 µM
same,TGI,OVCAR-3 ovarian,> 100 µM
same,GI50,SK-OV-3 ovarian,> 100 µM
same,TGI,SK-OV-3 ovarian,> 100 µM
same,GI50,SK-MEL-28 melanoma,61.9 µM
same,TGI,SK-MEL-28 melanoma,> 100 µM
same,GI50,OVCAR-8 ovarian,26.5 µM
same,TGI,OVCAR-8 ovarian,> 100 µM
same,GI50,NCI-H23 lung,21.8 µM
same,TGI,NCI-H23 lung,48.8 µM
same,GI50,TK-10 renal,29.6 µM
same,TGI,TK-10 renal,> 100 µM
same,GI50,PC-3 prostate,25.8 µM
same,TGI,PC-3 prostate,83.3 µM
same,GI50,T-47D breast,35.6 µM
same,TGI,T-47D breast,> 100 µM
same,GI50,OVCAR-4 ovarian,44.9 µM
same,TGI,OVCAR-4 ovarian,> 100 µM
same,GI50,CAKI-1 renal,33.7 µM
same,TGI,CAKI-1 renal,> 100 µM
same,GI50,UO-31 renal,48.6 µM
same,TGI,UO-31 renal,> 100 µM
same,GI50,A498 renal,38 µM
same,TGI,A498 renal,76 µM
same,GI50,MOLT-4 leukemia,19.5 µM
same,TGI,MOLT-4 leukemia,51.6 µM
same,GI50,NCI/ADR-RES ovarian,28.4 µM
same,TGI,NCI/ADR-RES ovarian,79.9 µM
same,GI50,NCI-H460 lung,19.9 µM
same,TGI,NCI-H460 lung,45.7 µM
same,GI50,HS 578T breast,42.3 µM
same,TGI,HS 578T breast,85.4 µM
same,GI50,K-562 leukemia,15.3 µM
same,TGI,K-562 leukemia,> 100 µM
Nc1ccccc1C#C/C=C\C#Cc1ccccc1[N+](=O)[O-],GI50,KM12 colon,3.19 µM
same,TGI,KM12 colon,70.6 µM
same,GI50,SNB-75 CNS,13.3 µM
same,TGI,SNB-75 CNS,58.3 µM
same,GI50,HL-60(TB) leukemia,1.96 µM
same,TGI,HL-60(TB) leukemia,60.7 µM
same,GI50,A549 NSCLC,4.42 µM
same,TGI,A549 NSCLC,21.3 µM
same,GI50,NCI-H522 lung,7.25 µM
same,TGI,NCI-H522 lung,39.8 µM
same,GI50,IGROV1 ovarian,10.9 µM
same,TGI,IGROV1 ovarian,79.8 µM
same,GI50,RXF 393 renal,2.07 µM
same,TGI,RXF 393 renal,9.06 µM
same,GI50,MDA-MB-435,0.402 µM
same,TGI,MDA-MB-435,14.1 µM
same,GI50,ACHN renal,5.3 µM
same,TGI,ACHN renal,19 µM
same,GI50,RPMI-8226 leukemia,4.58 µM
same,TGI,RPMI-8226 leukemia,> 100 µM
same,GI50,SK-MEL-2 melanoma,12.9 µM
same,TGI,SK-MEL-2 melanoma,34.7 µM
same,GI50,SN12C renal,3.18 µM
same,TGI,SN12C renal,13.7 µM
same,GI50,UACC-62 melanoma,2.02 µM
same,TGI,UACC-62 melanoma,10.6 µM
same,GI50,U251 CNS,3.72 µM
same,TGI,U251 CNS,18.9 µM
same,GI50,MCF7 breast,3.32 µM
same,TGI,MCF7 breast,> 100 µM
same,GI50,SW-620 colon,0.942 µM
same,TGI,SW-620 colon,88.8 µM
same,GI50,CCRF-CEM leukemia,3.75 µM
same,TGI,CCRF-CEM leukemia,18.1 µM
same,GI50,HCT-15 colon,0.718 µM
same,TGI,HCT-15 colon,21.7 µM
same,GI50,DU-145 prostate,7.86 µM
same,TGI,DU-145 prostate,29.2 µM
same,GI50,HOP-62 NSCLC,17.5 µM
same,TGI,HOP-62 NSCLC,48.6 µM
same,GI50,786-0 renal,12.3 µM
same,TGI,786-0 renal,43.2 µM
same,GI50,COLO 205 colon,4.38 µM
same,TGI,COLO 205 colon,22 µM
same,GI50,SK-MEL-5 melanoma,3.08 µM
same,TGI,SK-MEL-5 melanoma,18.6 µM
same,GI50,MDA-MB-231 breast,2.61 µM
same,TGI,MDA-MB-231 breast,14.6 µM
same,GI50,SR leukemia,0.289 µM
same,TGI,SR leukemia,5.54 µM
same,GI50,EKVX NSCLC,2.51 µM
same,TGI,EKVX NSCLC,17.8 µM
same,GI50,M14 melanoma,8.08 µM
same,TGI,M14 melanoma,26.9 µM
same,GI50,SF-295 CNS,7.31 µM
same,TGI,SF-295 CNS,85.8 µM
same,GI50,HOP-92 NSCLC,31.7 µM
same,TGI,HOP-92 NSCLC,> 100 µM
same,GI50,HCC-2998 colon,12 µM
same,TGI,HCC-2998 colon,43.6 µM
same,GI50,SF-268 CNS,6.38 µM
same,TGI,SF-268 CNS,27.7 µM
same,GI50,SNB-19 CNS,19.8 µM
same,TGI,SNB-19 CNS,96.2 µM
same,GI50,LOX IMVI melanoma,2.28 µM
same,TGI,LOX IMVI melanoma,15.7 µM
same,GI50,HCT-116 colon,4.31 µM
same,TGI,HCT-116 colon,36 µM
same,GI50,BT-549 breast,4.66 µM
same,TGI,BT-549 breast,22.6 µM
same,GI50,SF-539 CNS,2.17 µM
same,TGI,SF-539 CNS,10.4 µM
same,GI50,UACC-257 melanoma,4.98 µM
same,TGI,UACC-257 melanoma,20 µM
same,GI50,OVCAR-5 ovarian,17.4 µM
same,TGI,OVCAR-5 ovarian,33.6 µM
same,GI50,OVCAR-3 ovarian,4.03 µM
same,TGI,OVCAR-3 ovarian,37 µM
same,GI50,SK-OV-3 ovarian,9.26 µM
same,TGI,SK-OV-3 ovarian,60.9 µM
same,GI50,SK-MEL-28 melanoma,15.4 µM
same,TGI,SK-MEL-28 melanoma,34.8 µM
same,GI50,OVCAR-8 ovarian,4.83 µM
same,TGI,OVCAR-8 ovarian,32.9 µM
same,GI50,NCI-H23 lung,12.4 µM
same,TGI,NCI-H23 lung,38.5 µM
same,GI50,TK-10 renal,28.2 µM
same,TGI,TK-10 renal,> 100 µM
same,GI50,PC-3 prostate,6.82 µM
same,TGI,PC-3 prostate,> 100 µM
same,GI50,T-47D breast,34.6 µM
same,TGI,T-47D breast,> 100 µM
same,GI50,CAKI-1 renal,3.28 µM
same,TGI,CAKI-1 renal,23 µM
same,GI50,UO-31 renal,10.5 µM
same,TGI,UO-31 renal,28.4 µM
same,GI50,A498 renal,25.4 µM
same,TGI,A498 renal,69.7 µM
same,GI50,MOLT-4 leukemia,27.7 µM
same,TGI,MOLT-4 leukemia,> 100 µM
same,GI50,NCI/ADR-RES ovarian,1.23 µM
same,TGI,NCI/ADR-RES ovarian,6.47 µM
same,GI50,NCI-H460 lung,3.59 µM
same,TGI,NCI-H460 lung,83.1 µM
same,GI50,HS 578T breast,4.99 µM
same,TGI,HS 578T breast,> 100 µM
same,GI50,K-562 leukemia,0.533 µM
same,TGI,K-562 leukemia,5.93 µM
